From patent US20260108527A1, “POLO LIKE KINASE 4 INHIBITORS” (ORIC Pharmaceuticals, Inc., priority 2022, published 2026)

Molecular target: T1, human recombinant Aurora A (Homo sapiens, UniProt O14965)
T1 construct: purchased ThermoFisher PR5935A
T1 sequence (O14965 1-403): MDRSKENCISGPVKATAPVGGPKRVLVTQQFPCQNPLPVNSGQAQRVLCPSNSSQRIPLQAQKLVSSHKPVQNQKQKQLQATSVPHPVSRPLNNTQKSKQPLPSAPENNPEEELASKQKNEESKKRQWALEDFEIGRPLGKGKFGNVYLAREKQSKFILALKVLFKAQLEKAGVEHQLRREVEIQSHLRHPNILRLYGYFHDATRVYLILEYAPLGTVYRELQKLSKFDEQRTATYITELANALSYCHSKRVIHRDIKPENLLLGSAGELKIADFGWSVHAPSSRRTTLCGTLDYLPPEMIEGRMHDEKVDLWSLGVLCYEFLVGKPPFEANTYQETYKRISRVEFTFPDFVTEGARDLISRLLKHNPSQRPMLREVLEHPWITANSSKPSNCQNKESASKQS
Test: Aurora A Kinase Biochemical Assay (ADP-Glo)
Conditions: selectivity ratio; Aurora A 2.5 nM, 20 μM ATP
Procedure: Activity of human recombinant Aurora A (ThermoFisher, cat #PR5935A) was measured by quantification of adenosine diphosphate (ADP) using the ADP-Glo Kinase Assay Kit (Promega, cat #V9102). Test compounds were solubilized in dimethyl sulfoxide (DMSO) and dispensed into 384-well white polystyrene nonbinding plates (Greiner, cat #781094) using the Echo acoustic dispenser (Labcyte Inc.) in a 11-point 3-fold titration in duplicates. 5 μL of 5.0 nM Aurora A in assay buffer (50 mM HEPES, pH 7.5, 0.01% Brij-35, 0.01% BSA, 10 mM MgCl2, 1 mM EGTA, 1 mM DTT) was added to the plates. Test compounds and Aurora A were incubated for 15 minutes at room temperature (RT). Then 5 μL of a 40 μM adenosine triphosphate (ATP) (Promega, cat #V915B) and 9.3 μM Myelin Basic Protein (MBP) (SignalChem, cat #M42-51N) substrate solution in assay buffer was added and the reaction mixture was incubated for 2 hours at RT. The final concentration of Aurora A, ATP and MBP in the reactions were 2.5 nM, 20 μM and 4.7 μM, respectively. Reactions were stopped and the remaining ATP depleted by adding 10 μL of ADP-Glo reagent (Promega, cat #V912B) and incubating for 40 minutes at RT. The simultaneous conversion of the remaining ADP to ATP and measurement of the newly synthesized ATP was achieved by addition of 20 μL Kinase Detection reagent (Promega, cat #V914B), incubation for 30 min at RT, and luminescence detection using the EnVision plate reader (PerkinElmer). Reactions lacking Aurora A were used as 100% inhibition controls. Reactions containing DMSO alone were used as 0% inhibition controls. The IC50 values reported in Table 2 were determined using four parameter non-linear regression curve fit.

Compound	[Aurora A IC50 (nM)]/[PLK4 IC50 (nM)]
COc1ccc2c(c1)[C@]1(C[C@H]1c1ccc3c(Nc4cc(-c5ncco5)ccc4OC)n[nH]c3c1)C(=O)N2 [Example 13, (1R,2S)-5′-methoxy-2-{3-[2-methoxy-5-(1,3-oxazol-2-yl)anilino]-1H-indazol-6-yl}spiro[cyclopropane-1,3′-indol]-2′(1′H)-one]	414.8
COc1ccc2c(c1)[C@]1(C[C@H]1c1ccc3c(Nc4cc(-c5nccs5)ccc4OC)n[nH]c3c1)C(=O)N2 [Example 14, (1R,2S)-5′-methoxy-2-{3-[2-methoxy-5-(1,3-thiazol-2-yl)anilino]-1H-indazol-6-yl}spiro[cyclopropane-1,3′-indol]-2′(1′H)-one]	187.4804
COc1ccc2c(c1)[C@]1(C[C@H]1c1ccc3c(Nc4ccc(-c5nnn(C)n5)cc4OC)n[nH]c3c1)C(=O)N2 [Example 17, (1R,2S)-5′-methoxy-2-{3-[2-methoxy-4-(2-methyl-2H-tetrazol-5-yl)anilino]-1H-indazol-6-yl}spiro[cyclopropane-1,3′-indol]-2′(1′H)-one]	1000
COc1ccc2c(c1)[C@]1(C[C@H]1c1ccc3c(Nc4cc(-c5cnco5)ccc4OC)n[nH]c3c1)C(=O)N2 [Example 18, (1R,2S)-5′-methoxy-2-{3-[2-methoxy-5-(1,3-oxazol-5-yl)anilino]-1H-indazol-6-yl}spiro[cyclopropane-1,3′-indol]-2′(1′H)-one]	500
CCOc1ccc(-c2cnn(C)c2)cc1Nc1n[nH]c2cc([C@@H]3C[C@@]34C(=O)Nc3ccc(OC)cc34)ccc12 [Example 37, (1R,2S)-2-{3-[2-ethoxy-5-(1-methyl-1H-pyrazol-4-yl)anilino]-1H-indazol-6-yl}-5′-methoxyspiro[cyclopropane-1,3′-indol]-2′(1′H)-one]	27839.6436
COc1ccc2c(c1)[C@]1(C[C@H]1c1ccc3c(Nc4nc(-c5ncco5)cnc4OC)n[nH]c3c1)C(=O)N2 [Example 19, (1R,2S)-5′-methoxy-2-(3-{[3-methoxy-6-(1,3-oxazol-2-yl)pyrazin-2-yl]amino}-1H-indazol-6-yl)spiro[cyclopropane-1,3′-indol]-2′(1′H)-one]	360
CCOc1cc(-c2cnccn2)ccc1Nc1n[nH]c2cc([C@@H]3C[C@@]34C(=O)Nc3ccc(OC)cc34)ccc12 [Example 7, (1R,2S)-2-{3-[2-ethoxy-4-(pyrazin-2-yl)anilino]-1H-indazol-6-yl}-5′-methoxyspiro[cyclopropane-1,3′-indol]-2′(1′H)-one]	10956.01173
COc1ccc2c(c1)[C@]1(C[C@H]1c1ccc3c(Nc4nc(-c5cnco5)ncc4OC)n[nH]c3c1)C(=O)N2 [Example 40, (1R,2S)-5′-methoxy-2-(3-{[5-methoxy-2-(1,3-oxazol-5-yl)pyrimidin-4-yl]amino}-1H-indazol-6-yl)spiro[cyclopropane-1,3′-indol]-2′(1′H)-one]	288.4
COc1ccc2c(c1)[C@]1(C[C@H]1c1ccc3c(Nc4cc(-c5cnn(C)c5)cnc4OC)n[nH]c3c1)C(=O)N2 [Example 26, (1R,2S)-5′-methoxy-2-(3-{[2-methoxy-5-(1-methyl-1H-pyrazol-4-yl)pyridin-3-yl]amino}-1H-indazol-6-yl)spiro[cyclopropane-1,3′-indol]-2′(1′H)-one]	992.1456
COc1ccc2c(c1)[C@]1(C[C@H]1c1ccc3c(Nc4cc(-c5nnn(C)n5)ccc4OC)n[nH]c3c1)C(=O)N2 [Example 21, (1R,2S)-5′-methoxy-2-{3-[2-methoxy-5-(2-methyl-2H-tetrazol-5-yl)anilino]-1H-indazol-6-yl}spiro[cyclopropane-1,3′-indol]-2′(1′H)-one]	1900
CCOc1cc2ccccc2nc1Nc1n[nH]c2cc([C@@H]3C[C@@]34C(=O)Nc3ccc(OC)cc34)ccc12 [Example 8, (1R,2S)-2-{3-[(3-ethoxyquinolin-2-yl)amino]-1H-indazol-6-yl}-5′-methoxyspiro[cyclopropane-1,3′-indol]-2′(1′H)-one]	27382.2563
CCOc1ncc(-c2nccs2)cc1Nc1n[nH]c2cc([C@@H]3C[C@@]34C(=O)Nc3ccc(OC)cc34)ccc12 [Example 41, (1R,2S)-2-(3-{[2-ethoxy-5-(1,3-thiazol-2-yl)pyridin-3-yl]amino}-1H-indazol-6-yl)-5′-methoxyspiro[cyclopropane-1,3′-indol]-2′(1′H)-one]	4711.9113
CCOc1cnc(-c2nccs2)nc1Nc1n[nH]c2cc([C@@H]3C[C@@]34C(=O)Nc3ccc(OC)cc34)ccc12 [Example 44, (1R,2S)-2-(3-{[5-ethoxy-2-(1,3-thiazol-2-yl)pyrimidin-4-yl]amino}-1H-indazol-6-yl)-5′-methoxyspiro[cyclopropane-1,3′-indol]-2′(1′H)-one]	702.5
CCOc1ccc(-c2nccs2)nc1Nc1n[nH]c2cc([C@@H]3C[C@@]34C(=O)Nc3ccc(OC)cc34)ccc12 [Example 28, (1R,2S)-2-(3-{[3-ethoxy-6-(1,3-thiazol-2-yl)pyridin-2-yl]amino}-1H-indazol-6-yl)-5′-methoxyspiro[cyclopropane-1,3′-indol]-2′(1′H)-one]	1135
COc1ccc2c(c1)[C@]1(C[C@H]1c1ccc3c(Nc4cc5c(cc4OC)S(=O)(=O)C=C5)n[nH]c3c1)C(=O)N2 [Example 6, 6-methoxy-5-({6-[(1R,2S)-5′-methoxy-2′-oxo-1′,2′-dihydrospiro[cyclopropane-1,3′-indol]-2-yl]-1H-indazol-3-yl}amino)-1H-1-benzothiophene-1,1-dione]	581.0754
COc1ccc2c(c1)[C@]1(C[C@H]1c1ccc3c(Nc4cc(-c5cnn(C)c5)ccc4OC)n[nH]c3c1)C(=O)N2 [Example 11, (1R,2S)-5′-methoxy-2-{3-[2-methoxy-5-(1-methyl-1H-pyrazol-4-yl)anilino]-1H-indazol-6-yl}spiro[cyclopropane-1,3′-indol]-2′(1′H)-one]	897.6923
COc1ccc2c(c1)[C@]1(C[C@H]1c1ccc3c(Nc4cc(-c5cnn(CC(F)F)c5)ccc4OC)n[nH]c3c1)C(=O)N2 [Example 39, (1R,2S)-2-(3-{5-[1-(2,2-difluoroethyl)-1H-pyrazol-4-yl]-2-methoxyanilino}-1H-indazol-6-yl)-5′-methoxyspiro[cyclopropane-1,3′-indol]-2′(1′H)-one]	1647.6978
COc1ccc2c(c1)[C@]1(C[C@H]1c1ccc3c(Nc4cc(-c5cocn5)cnc4OC)n[nH]c3c1)C(=O)N2 [Example 42, (1R,2S)-5′-methoxy-2-(3-{[2-methoxy-5-(1,3-oxazol-4-yl)pyridin-3-yl]amino}-1H-indazol-6-yl)spiro[cyclopropane-1,3′-indol]-2′(1′H)-one]	157.8304
COc1ccc2c(c1)[C@]1(C[C@H]1c1ccc3c(Nc4ccc(S(C)(=O)=O)cc4OC)n[nH]c3c1)C(=O)N2 [Example 2, (1R,2S)-2-{3-[4-(methanesulfonyl)-2-methoxyanilino]-1H-indazol-6-yl}-5′-methoxyspiro[cyclopropane-1,3′-indol]-2′(1′H)-one]	801.1462
